Measured values: PubChem BioAssay (NCI)
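The compound was tested at five concentrations on cells cultured in 96-well plates, with a 48-hour exposure period. GI50: concentration for 50% inhibition of growth. TGI marks complete inhibition of growth.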

Tests used:
Test in all cases: NCI anticancer screen, dose series, 48 h
KM12 colon = test system: KM12 colon
UACC-257 melanoma = test system: UACC-257 melanoma
TK-10 renal = test system: TK-10 renal
M14 melanoma = test system: M14 melanoma
ACHN renal = test system: ACHN renal
SF-295 CNS = test system: SF-295 CNS
NCI-H460 lung = test system: NCI-H460 lung
PC-3 prostate = test system: PC-3 prostate
NCI/ADR-RES ovarian = test system: NCI/ADR-RES ovarian
NCI-H522 lung = test system: NCI-H522 lung
CAKI-1 renal = test system: CAKI-1 renal
A498 renal = test system: A498 renal
A549 NSCLC = test system: A549 NSCLC
K-562 leukemia = test system: K-562 leukemia
OVCAR-5 ovarian = test system: OVCAR-5 ovarian
NCI-H226 lung = test system: NCI-H226 lung
MDA-MB-231 breast = test system: MDA-MB-231 breast
DU-145 prostate = test system: DU-145 prostate
OVCAR-8 ovarian = test system: OVCAR-8 ovarian
U251 CNS = test system: U251 CNS
LOX IMVI melanoma = test system: LOX IMVI melanoma
SNB-75 CNS = test system: SNB-75 CNS
COLO 205 colon = test system: COLO 205 colon
T-47D breast = test system: T-47D breast
MOLT-4 leukemia = test system: MOLT-4 leukemia
SW-620 colon = test system: SW-620 colon
HOP-92 NSCLC = test system: HOP-92 NSCLC
MALME-3M melanoma = test system: MALME-3M melanoma
OVCAR-3 ovarian = test system: OVCAR-3 ovarian
RPMI-8226 leukemia = test system: RPMI-8226 leukemia
HS 578T breast = test system: HS 578T breast
SK-MEL-2 melanoma = test system: SK-MEL-2 melanoma
MDA-MB-435 = test system: MDA-MB-435
HT29 colon = test system: HT29 colon
786-0 renal = test system: 786-0 renal
SF-268 CNS = test system: SF-268 CNS
SF-539 CNS = test system: SF-539 CNS
EKVX NSCLC = test system: EKVX NSCLC
SNB-19 CNS = test system: SNB-19 CNS
HCC-2998 colon = test system: HCC-2998 colon
UACC-62 melanoma = test system: UACC-62 melanoma
UO-31 renal = test system: UO-31 renal
IGROV1 ovarian = test system: IGROV1 ovarian
HL-60(TB) leukemia = test system: HL-60(TB) leukemia
SN12C renal = test system: SN12C renal
SK-MEL-28 melanoma = test system: SK-MEL-28 melanoma
MCF7 breast = test system: MCF7 breast
HCT-116 colon = test system: HCT-116 colon
HCT-15 colon = test system: HCT-15 colon
BT-549 breast = test system: BT-549 breast
SK-OV-3 ovarian = test system: SK-OV-3 ovarian
SK-MEL-5 melanoma = test system: SK-MEL-5 melanoma
SR leukemia = test system: SR leukemia
HOP-62 NSCLC = test system: HOP-62 NSCLC
NCI-H23 lung = test system: NCI-H23 lung
CCRF-CEM leukemia = test system: CCRF-CEM leukemia
OVCAR-4 ovarian = test system: OVCAR-4 ovarian

## CN1CCN(c2ccc(Nc3nc(NCCCNS(=O)(=O)c4ccc(F)cc4)c4sccc4n3)cc2)CC1
KM12 colon
  GI50: 16.9 µM
  TGI: 56.4 µM
UACC-257 melanoma
  GI50: 15.1 µM
  TGI: 30.3 µM
TK-10 renal
  GI50: 24.6 µM
  TGI: 61.5 µM
M14 melanoma
  GI50: 2.47 µM
  TGI: 7.33 µM
ACHN renal
  GI50: 17.1 µM
  TGI: 40.2 µM
SF-295 CNS
  GI50: 13.3 µM
  TGI: 26.6 µM
NCI-H460 lung
  GI50: 14.5 µM
  TGI: 29.2 µM
PC-3 prostate
  GI50: 13.4 µM
  TGI: 46.1 µM
NCI/ADR-RES ovarian
  GI50: 18.9 µM
  TGI: 55.2 µM
NCI-H522 lung
  GI50: 13.3 µM
  TGI: 27.5 µM
CAKI-1 renal
  GI50: 15.2 µM
  TGI: 28.4 µM
A498 renal
  GI50: 16.1 µM
  TGI: 32.4 µM
A549 NSCLC
  GI50: 21.2 µM
  TGI: 97.9 µM
K-562 leukemia
  GI50: 2.82 µM
  TGI: > 100 µM
OVCAR-5 ovarian
  GI50: 18.1 µM
  TGI: 55.9 µM
NCI-H226 lung
  GI50: 10.8 µM
  TGI: 23.1 µM
MDA-MB-231 breast
  GI50: 11 µM
  TGI: 27.3 µM
DU-145 prostate
  GI50: 17.4 µM
  TGI: 43 µM
OVCAR-8 ovarian
  GI50: 14.9 µM
  TGI: 42.8 µM
U251 CNS
  GI50: 5.65 µM
  TGI: 28.6 µM
LOX IMVI melanoma
  GI50: 12 µM
  TGI: 25.6 µM
SNB-75 CNS
  GI50: 0.271 µM
  TGI: 20.3 µM
COLO 205 colon
  GI50: 14.2 µM
  TGI: 32.2 µM
T-47D breast
  GI50: 15 µM
  TGI: 40.4 µM
MOLT-4 leukemia
  GI50: 6.02 µM
  TGI: 43.1 µM
SW-620 colon
  GI50: 15.2 µM
  TGI: 30.1 µM
HOP-92 NSCLC
  GI50: 4.72 µM
  TGI: 26.1 µM
MALME-3M melanoma
  GI50: 12.1 µM
  TGI: 24.4 µM
OVCAR-3 ovarian
  GI50: 17.8 µM
  TGI: 55.7 µM
RPMI-8226 leukemia
  GI50: 5.24 µM
  TGI: 37.6 µM
HS 578T breast
  GI50: 4.92 µM
  TGI: 25.4 µM
SK-MEL-2 melanoma
  GI50: 15.5 µM
  TGI: 29.7 µM
MDA-MB-435
  GI50: 14.3 µM
  TGI: 27.4 µM
HT29 colon
  GI50: 5.18 µM
  TGI: 25 µM
786-0 renal
  GI50: 15.6 µM
  TGI: 34.4 µM
SF-268 CNS
  GI50: 12.8 µM
  TGI: 63.4 µM
SF-539 CNS
  GI50: 12 µM
  TGI: 24.4 µM
EKVX NSCLC
  GI50: 21 µM
  TGI: 73.8 µM
SNB-19 CNS
  GI50: 23 µM
  TGI: 61.1 µM
HCC-2998 colon
  GI50: 14.9 µM
  TGI: 30.8 µM
UACC-62 melanoma
  GI50: 12.5 µM
  TGI: 25.2 µM
UO-31 renal
  GI50: 10.7 µM
  TGI: 28.7 µM
IGROV1 ovarian
  GI50: 12.9 µM
  TGI: 28 µM
HL-60(TB) leukemia
  GI50: 19.8 µM
  TGI: 45.4 µM
SN12C renal
  GI50: 13.6 µM
  TGI: 37.2 µM
SK-MEL-28 melanoma
  GI50: 13.1 µM
  TGI: 25.8 µM
MCF7 breast
  GI50: 7.39 µM
  TGI: 20.2 µM
HCT-116 colon
  GI50: 5.35 µM
  TGI: 28.5 µM
HCT-15 colon
  GI50: 4.6 µM
  TGI: 20.1 µM
BT-549 breast
  GI50: 13.9 µM
  TGI: 31.4 µM
SK-OV-3 ovarian
  GI50: 27 µM
  TGI: 78.4 µM
SK-MEL-5 melanoma
  GI50: 15.8 µM
  TGI: 29.2 µM
SR leukemia
  GI50: 2.83 µM
  TGI: > 100 µM
HOP-62 NSCLC
  GI50: 15.4 µM
  TGI: 32.8 µM
NCI-H23 lung
  GI50: 14.8 µM
  TGI: 30.3 µM
CCRF-CEM leukemia
  GI50: 22.2 µM
  TGI: > 100 µM
OVCAR-4 ovarian
  GI50: 10.2 µM
  TGI: 38.8 µM
